According to patent US9573908B2, “Broad spectrum pro-quorum-sensing molecules as inhibitors of virulence in vibrios” (priority 2012, dated 2017):

What was measured:
[1] = system: V. cholerae ΔcqsA ΔluxS double synthase mutant; assay type: cell-based; conditions: for induction of bioluminescence / QS activation: ΔcqsA ΔluxS double synthase mutant (wild type LuxO)
E. coli NtrC = target: T1, E. coli NtrC (Escherichia coli, UniProt P0AFB8, D54E); experiment: biochemical; conditions: read-out: inhibition of ATPase activity of purified E. coli NtrC
T1 construct: His6 (N); made in house; host or cells: E. coli BL21 (DE3), strain WN2181 (pET28B-NtrC D54E)
T1 sequence (P0AFB8 1-469 D54E): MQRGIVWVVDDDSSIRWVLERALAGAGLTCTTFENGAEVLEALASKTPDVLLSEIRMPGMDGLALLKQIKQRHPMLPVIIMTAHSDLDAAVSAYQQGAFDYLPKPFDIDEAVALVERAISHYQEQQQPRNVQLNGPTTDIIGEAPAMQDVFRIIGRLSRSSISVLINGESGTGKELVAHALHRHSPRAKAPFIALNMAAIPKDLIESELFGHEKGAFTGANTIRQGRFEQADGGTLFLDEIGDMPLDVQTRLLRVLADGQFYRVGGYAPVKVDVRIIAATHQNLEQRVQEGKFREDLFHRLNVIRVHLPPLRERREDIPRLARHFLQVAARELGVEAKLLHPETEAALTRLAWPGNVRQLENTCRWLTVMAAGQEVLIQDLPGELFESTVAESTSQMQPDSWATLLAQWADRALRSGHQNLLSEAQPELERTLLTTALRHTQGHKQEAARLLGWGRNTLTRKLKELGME

[2] = system: qrr4 expression in V. cholerae luxO^D47E strain; assay type: cell-based, Vibrio cholerae; conditions: 50 μM compound
[3] = system: V. cholerae luxO^D47E strain; assay type: cell-based, Vibrio cholerae; conditions: for induction of bioluminescence / QS activation: luxO^D47E mutant
LuxO D47E = LuxO D47E (Vibrio cholerae serotype O1, UniProt Q9KT84, D47E); experiment: Coupled-enzyme ATPase assay, LuxO D47E; assay type: biochemical; conditions: for inhibition of ATP hydrolysis: FIG. 5A-C; for mode of inhibition: Lineweaver-Burk plots, parallel slopes
[4] = system: V. parahaemolyticus luxO* mutant (LM4476); experiment: Colony opacity of V. parahaemolyticus; assay type: cell-based, Vibrio parahaemolyticus; conditions: 500 μM in medium
vpsR = experiment: Transcription of the σ54-dependent gene vpsR; assay type: cell-based, Vibrio cholerae; conditions: in the presence of compound
LuxO D47E/I211F = LuxO D47E/I211F (Vibrio cholerae serotype O1, UniProt Q9KT84, D47E/I197F); experiment: Coupled-enzyme ATPase assay, LuxO D47E/I211F; assay type: biochemical; conditions: 100 μM Compound 12, 2.5 mM ATP (FIG. 11)
[5] = system: V. parahaemolyticus luxO* strain (LM4476); assay type: cell-based; conditions: 200 and 500 μM compound 12, Western blot
[6] = system: V. parahaemolyticus LM4476 (luxO*) on cultured HeLa cells; experiment: V. parahaemolyticus cytotoxicity assay on HeLa cells (LDH release); conditions: 500 μM, luxO* mutant, MOI 10
[7] = system: V. cholerae luxO^D47E strain; assay type: cell-based, Vibrio cholerae; conditions: 0-200 μM compound 12, Western blot

Structure (SMILES): CC(C)COC(=O)CSc1n[nH]c(=O)[nH]c1=O [Compound 11, Isobutyl 2-((3,5-dioxo-2,3,4,5-tetrahydro-1,2,4-triazin-6-yl)thio)acetate]
- EC50 (potency) of QS activation ([1]; dose-response curves, FIG. 2C, comparison in words): highest potency
- induction of bioluminescence / QS activation [1]: activate QS
- inhibition at 250 µM (E. coli NtrC): ~10%
- decrease of GFP production from qrr4-gfp transcriptional fusion [2]: ~3 fold
- induction of bioluminescence / QS activation [3]: activate QS
- inhibition of ATP hydrolysis (LuxO D47E): inhibit ATP hydrolysis in a dose-dependent manner
- mode of inhibition (LuxO D47E): uncompetitive inhibitors
- colony morphology [4]: switch from translucent to opaque
- change in transcription of vpsR (vpsR): did not change significantly

Structure (SMILES): CC(C)(C)COC(=O)CSc1n[nH]c(=O)[nH]c1=O [Compound 12, Neopentyl 2-((3,5-dioxo-2,3,4,5-tetrahydro-1,2,4-triazin-6-yl)thio)acetate]
- induction of bioluminescence / QS activation [1]: activate QS
- inhibition of ATPase activity of LuxO D47E/I211F (LuxO D47E/I211F): not inhibited
- VopD production and secretion [5]: decreased production and secretion
- inhibition at 250 µM (E. coli NtrC): ~10%
- average cytotoxicity (HeLa cell lysis) ([6]; 2 to 3 hours post-infection): ~30%
- cytotoxicity (HeLa cell lysis) ([6]; 4-hour post-infection): ~100%
- enhancement in potency ([3]; EC50 from FIG. 3, tert-butyl carbinol side chain versus the series): 3 fold
- induction of bioluminescence / QS activation [3]: activate QS
- inhibition of ATP hydrolysis (LuxO D47E): inhibit ATP hydrolysis in a dose-dependent manner
- mode of inhibition (LuxO D47E): uncompetitive inhibitors
- colony morphology [4]: switch from translucent to opaque
- HapR level [7]: increased
- TcpA level [7]: decreased
